Among the test systems are U251 CNS; A549 NSCLC; MCF7 breast; UACC-62 melanoma; SK-OV-3 ovarian; CAKI-1 renal; COLO 205 colon; M14 melanoma; DMS 114 small cell lung; HOP-18 NSCLC.
Common to all, as to experiment: DTP human tumour cell line panel, 48 h

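Step 1: Grow cells in 96-well plates. Step 2: Expose to compound for 48 hours at 5 concentrations. Step 3: Interpolate endpoints linearly; if unreached, use highest concentration. GI50 = concentration required for 50% inhibition of growth. TGI is the concentration that stops growth completely.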

As usually defined, the GI50 is the concentration that inhibits growth by half. For orientation: TGI means the concentration giving total growth inhibition. Low values mean greater sensitivity of the cells, high ones lower sensitivity of the cells.

Turning to `COc1ccc2c(c1)NC1=C(C(=O)OC1)C2c1cc(OC)c2c(c1)OCO2` (stereo not given), the GI50 with U251 CNS was 0.0236 µM; in the test on A549 NSCLC, 0.0229 µM; in the test with MCF7 breast, < 0.0158 µM; with UACC-62 melanoma, < 0.0156 µM; in the test on SK-OV-3 ovarian, 0.0204 µM; in the test with CAKI-1 renal, 0.0502 µM. Besides, the concentration for 50% growth inhibition (GI50) was < 0.0135 µM with COLO 205 colon and 0.0132 µM in the test with M14 melanoma. Moreover, the TGI in the test with U251 CNS was > 100 µM; in the test on A549 NSCLC it was > 100 µM; with MCF7 breast it was > 100 µM; with UACC-62 melanoma, > 100 µM; in the test on CAKI-1 renal, > 100 µM; in the test with COLO 205 colon it was 0.0305 µM. The compound also had a total growth inhibition concentration (TGI) with M14 melanoma of 0.0585 µM.
`C/C(=N/NC(=S)N1CCCCC1)c1ccccc1O`: the TGI with U251 CNS, with A549 NSCLC, with MCF7 breast, with UACC-62 melanoma, with SK-OV-3 ovarian and in the test with CAKI-1 renal was > 31.6 µM in each case. Moreover, the total growth inhibition concentration (TGI) in the test with COLO 205 colon and in the test on M14 melanoma was > 31.6 µM in each case.
On to `C=C1C(O)C2C(=C(CC)C13CC3)C(=O)C(C)(C)C2OC` (stereo not given), for which the GI50 with U251 CNS was 48.4 µM; with A549 NSCLC it was 44.9 µM; with MCF7 breast, 42.4 µM; with UACC-62 melanoma, 84.9 µM; in the test with SK-OV-3 ovarian it was > 100 µM; with CAKI-1 renal, 76.5 µM. Also, the results for the GI50 in the test with COLO 205 colon and in the test with M14 melanoma were > 100 µM and 59.4 µM, respectively. Further, the concentration for total growth inhibition (TGI) with U251 CNS, with A549 NSCLC, in the test with MCF7 breast, in the test on UACC-62 melanoma, in the test with SK-OV-3 ovarian and with CAKI-1 renal was > 100 µM in each case. Moreover, the TGI in the test on COLO 205 colon and with M14 melanoma was > 100 µM each time.
With `Cc1cc(NC(=O)NC(=O)c2ccccc2NC(=O)C(C)N)ccc1Oc1ncc(Br)cn1` (stereo not given), the total growth inhibition concentration (TGI) was determined as 24.4 µM in the test on U251 CNS; 35.8 µM with A549 NSCLC; 58.2 µM in the test on MCF7 breast; 15.5 µM in the test with UACC-62 melanoma; 15.9 µM with SK-OV-3 ovarian; 6.17 µM in the test with DMS 114 small cell lung. For the same compound, the results for the concentration for total growth inhibition (TGI) with COLO 205 colon and in the test on M14 melanoma were 0.852 µM and 3.71 µM, respectively.
Turning to `NC(=O)N/N=C1/CCC(O)CC1CC(=O)O` (stereo not given), the TGI with U251 CNS, in the test with A549 NSCLC, in the test on MCF7 breast, in the test with UACC-62 melanoma, in the test with SK-OV-3 ovarian and in the test on CAKI-1 renal was > 100 µM throughout. In addition, the concentration for total growth inhibition (TGI) with COLO 205 colon and in the test on M14 melanoma was > 100 µM throughout.
For the compound `CC1=C(C(=O)Nc2ccc3n[nH]c(C)c3c2)C(c2ccc(C(F)(F)F)cc2)CC(=O)N1` (stereo not given), the GI50 in the test with U251 CNS is > 25 µM; in the test with A549 NSCLC it was 18.5 µM; with MCF7 breast, > 17.3 µM; in the test on UACC-62 melanoma, 16 µM; in the test on SK-OV-3 ovarian it was 24.2 µM; in the test on CAKI-1 renal, > 18.8 µM. Moreover, the GI50 with COLO 205 colon was 7.64 µM; in the test with M14 melanoma, > 25 µM. Besides, the concentration for total growth inhibition (TGI) with U251 CNS, with A549 NSCLC, in the test on MCF7 breast, in the test on UACC-62 melanoma, with SK-OV-3 ovarian and with CAKI-1 renal was > 25 µM throughout. Further, the TGI in the test with COLO 205 colon was > 19.1 µM; in the test on M14 melanoma it was > 25 µM.
Take `CC1=NN(C(=O)c2ccccc2O)C(=O)/C1=C/c1ccc(O)cc1`: the total growth inhibition concentration (TGI) in the test with U251 CNS was > 100 µM; in the test on A549 NSCLC it was > 100 µM; with MCF7 breast, > 100 µM; with UACC-62 melanoma, 5.06 µM; in the test on SK-OV-3 ovarian, > 100 µM; in the test on DMS 114 small cell lung, 16.1 µM. The TGI in the test on CAKI-1 renal was > 100 µM; with COLO 205 colon, > 94.6 µM; in the test on M14 melanoma, 22.4 µM.
Consider `CC(=O)[CH-]C(=O)c1ccccc1.CC(=O)[CH-]C(=O)c1ccccc1.CC[O-].CC[O-].[Hf+4]`, for which the GI50 in the test on U251 CNS, in the test on HOP-18 NSCLC, with A549 NSCLC, in the test on UACC-62 melanoma, with SK-OV-3 ovarian and with CAKI-1 renal was > 100 µM each time. Besides, the GI50 in the test with COLO 205 colon and in the test with M14 melanoma was > 100 µM in each case. Also, the TGI with U251 CNS, in the test with HOP-18 NSCLC, in the test with A549 NSCLC, in the test on UACC-62 melanoma, in the test on SK-OV-3 ovarian and in the test on CAKI-1 renal was > 100 µM each time. In addition, the total growth inhibition concentration (TGI) with COLO 205 colon and in the test with M14 melanoma was > 100 µM each time.
Turning to `COc1ccc(C/C(C)=C(/c2ccc(OCCN3CCCCC3)cc2)c2ccc(OC(=O)NCc3ccccc3)cc2)cc1`, the GI50 in the test with U251 CNS was 0.403 µM; in the test with A549 NSCLC, 0.413 µM; with MCF7 breast, 0.0568 µM; in the test with UACC-62 melanoma, 0.455 µM; in the test on SK-OV-3 ovarian, 0.436 µM; with CAKI-1 renal, 0.405 µM. Besides, the GI50 with COLO 205 colon was 0.437 µM; in the test on M14 melanoma, 0.344 µM. Also, the concentration for total growth inhibition (TGI) came to 0.791 µM in the test with U251 CNS; 0.821 µM in the test on A549 NSCLC; 0.512 µM in the test on MCF7 breast; 0.817 µM in the test with UACC-62 melanoma; 0.838 µM in the test with SK-OV-3 ovarian; 0.769 µM in the test with CAKI-1 renal. Besides, the figures for the concentration for total growth inhibition (TGI) in the test with COLO 205 colon and with M14 melanoma were 0.9 µM and 0.731 µM, respectively.
With `Cn1ncnc1[C@H]1c2n[nH]c(=O)c3cc(F)cc(c23)N[C@@H]1c1ccc(F)cc1`, the GI50 is 1.65 µM with U251 CNS; 6.96 µM in the test with A549 NSCLC; 0.701 µM in the test on MCF7 breast; > 100 µM with UACC-62 melanoma; > 100 µM in the test on SK-OV-3 ovarian; 5.89 µM in the test with CAKI-1 renal. Besides, the GI50 with COLO 205 colon was > 100 µM; with M14 melanoma, 4.19 µM. Further, the TGI with U251 CNS, in the test on A549 NSCLC, in the test on MCF7 breast, in the test with UACC-62 melanoma, with SK-OV-3 ovarian and in the test with CAKI-1 renal was > 100 µM each time. Further, the concentration for total growth inhibition (TGI) with COLO 205 colon and with M14 melanoma was > 100 µM in each case.
For `N/N=C(/C(=O)Nc1cccc(Cl)c1)C(C(=O)c1ccc(O)cc1O)C1OC(=O)c2ccccc21` (stereo not given), the total growth inhibition concentration (TGI) in the test with U251 CNS, in the test on A549 NSCLC, with UACC-62 melanoma, in the test on SK-OV-3 ovarian, with DMS 114 small cell lung and with COLO 205 colon was > 100 µM throughout. Also, in the test with M14 melanoma, the concentration for total growth inhibition (TGI) is > 100 µM.

Source of the values: PubChem BioAssay (NCI).
